Reference: patent US7838512B2, “DNA damaging agents in combination with tyrosine kinase inhibitors” (Arch Development Corporation, priority 1994, dated 2010)

Legend:
tumor [1] = conditions: alone, in vivo; cited from earlier work
pancreatic cancer cell = conditions: in vitro; cited from earlier work
p56/p53^lyn [2] = assay: Anti-Lyn immune complex kinase assay from irradiated (200 cGy) or H2O2-treated HL-60 cells; assay type: cell-based, human; conditions: for effect on X-ray-induced p56/p53^lyn activity: HL-60 cells, 200 cGy, harvested at 12 hours
Description: HL-60 myeloid leukemia cells were grown in RPMI-1640 medium containing 15% heat-inactivated fetal bovine serum (FBS) supplemented with 100 units/ml penicillin, […], 2 mM L-glutamine, 1 mM sodium pyruvate and 1 mM non-essential amino acids. Cells in logarithmic growth phase were suspended in complete RPMI-1640 medium with 0.5% FBS 18 hours prior to irradiation.
Irradiation was performed at room temperature using a Gammacell 1000 (Atomic Energy of Canada, Ottawa) under aerobic conditions with a ^137Cs source emitting at a fixed dose rate of 13.3 Gy/min as determined by dosimetry.
Cells (2−3×10^7) were washed twice with ice cold phosphate buffered saline (PBS) and lysed in 2 ml of lysis buffer (20 mM Tris, pH 7.4, 150 mM NaCl, 1% NP-40, 1 mM sodium vanadate, 1 mM phenylmethylsulfonyl fluoride, 1 mM DTT, and […] of leupeptin and aprotinin). After incubation on ice for 30 min, insoluble material was removed by centrifugation at 1400 rpm for 10 min at 4° C. Soluble proteins were precleared by incubation with 5 mg/ml rabbit anti-mouse IgG for 1 hour at 4° C. and then addition of protein A sepharose for 30 min.
The supernatants were incubated with 2.5 μl of anti-human Fyn, 2 μl of anti-human Lyn, 3 μl of anti-human Lyk (N-terminal) or 3 μl of anti-Src antibody (UBI, Lake Placid, N.Y.) for 1 hour at 4° C. followed by 30 min with protein A-sepharose. The immune complexes were washed three times with lysis buffer, once with kinase buffer (20 mM HEPES, pH 7.0, 10 mM MnCl2 and 10 mM MgCl2) and resuspended in 30 μl of kinase buffer containing 1 mCi/ml [γ-^32P]ATP (3000 Ci/mmol; NEN, Boston, Mass.). The reaction was incubated for 10 min at 30° C. and terminated by the addition of 2× SDS sample buffer. The proteins were resolved in 10% SDS-polyacrylamide gels, dried and analyzed by autoradiography.
Immune complexes as prepared for autophosphorylation assays were washed three times with lysis buffer and once with kinase buffer. The beads were resuspended in 30 μl of kinase buffer containing 1 mCi/ml [γ-^32p]ATP and 3-5 mg of acid treated enolase (Sigma). The reaction was incubated for 10 min at 30° C. and terminated by the addition of 2× SDS sample buffer. The proteins were resolved by 10% SDS-PAGE. Equal loading of the enolase was determined by staining with Coomassie blue. The gels were then destained and analyzed by autoradiography. Radioactive bands were also excised from the gel and -quantitated by scintillation counting.

protein-tyrosine kinase = conditions: compared with erbstatin; cited from earlier work
pp60^c-src = assay: Anti-Src immune complex kinase assay from MMC-treated HL-60 cells; assay type: cell-based, human; conditions: 10^−5 M MMC, 1 h
p56/p53^lyn [3] = assay: MMC added directly to the kinase reaction of anti-Lyn immune complexes from untreated HL-60 cells; assay type: biochemical, human; conditions: 10^−5 M MMC added to kinase reaction, 15 min
Description: FIG. 4A, FIG. 4B and FIG. 4C. MMC-induced p56/p53^lyn activation is sensitive to tyrosine kinase inhibitors and is not a direct effect. […] Anti-Lyn immunoprecipitates were analyzed for phosphorylation of p56/p53^lyn and enolase. […] Lysates from untreated HL-60 cells were immunoprecipitated with anti-Lyn. […] The reaction was analyzed for phosphorylation of p56/p53^lyn and enolase.
The supernatant fraction was incubated with pre-immune rabbit serum, anti-Fyn, anti-Lyn, anti-Src (UBI, Lake Placid, N.Y.) or anti-cdc2 (sc-54, Santa Cruz Biotechnology, Santa Cruz, Calif.) antibodies for 1 h at 4° C. followed by 30 min after addition of protein A-sepharose. The immune complexes were washed three times with lysis buffer and once with kinase buffer (20 mM HEPES, pH 7.0, 10 mM MnCl2 and 10 mM MgCl2) and resuspended in […] of kinase buffer containing 1 mCi/ml [γ-^32P]ATP (3000 Ci/mmol; NEN, Boston, Mass.) with and without 5-8 mg of acid-treated enolase (Sigma). The reaction was incubated for 15 min at 30° C. and terminated by the addition of 2× SDS sample buffer. The proteins were separated in 10% SDS-polyacrylamide gels and analyzed by autoradiography. Radioactive bands were excised from certain gels and quantitated by scintillation counting.

p34^cdc2 [4] = assay: Anti-cdc2 immunoprecipitates assayed for phosphorylation of H1 histone; assay type: cell-based; conditions: MMC-treated cells
p56/p53^lyn and p34^cdc2 = assay: Association of p56/p53^lyn with p34^cdc2 (GST-Lyn binding, coimmunoprecipitation); assay type: cell-based, human; conditions: HL-60 cells, 10^−5 M MMC, 1 h
Description: Coimmunoprecipitation. Immunoprecipitations were performed with anti-p34^cdc2 at 5 mg/ml cell lysate. Immune complexes were collected on protein A-Sepharose beads (Pharmacia), washed three times with lysis buffer and twice with kinase buffer, resuspended in kinase buffer and then incubated for 10 min at 30° C. in the presence of 1 mCi/ml [γ-^32P]ATP. One aliquot of the kinase reaction was subjected to SDS-PAGE and autoradiography. The other aliquot was washed in lysis buffer to remove free ATP and then boiled in 20 mM Tris-HCl, pH 8.0 containing 0.5% SDS and 1 mM DTT to disrupt protein-protein interaction. After dilution to 0.1% SDS, a secondary immunoprecipitation was then performed by adding anti-Lyn antibody and protein A-Sepharose beads. The anti-Lyn immunoprecipitates were then subjected to SDS-PAGE and autoradiography.
Fusion protein binding assays. The plasmid encoding a glutathione S-transferase (GST)-Lyn (amino acids 1 to 243) fusion protein was obtained from T. Pawson, Toronto, Canada and transfected into E. coli DH5a (Pleiman et al., 1993). The fusion protein was induced with IPTG, purified by affinity chromatography using glutathione-Sepharose beads (Pharmacia) and equilibrated in lysis buffer. HL-60 cell lysates were incubated with 50 mg immobilized GST or GST-Lyn for 2 h at 4° C. […]

p34^cdc2 [5] = assay: Immunoprecipitation of p34^cdc2 and immunoblotting with anti-P-Tyr / anti-cdc2; assay type: cell-based, human; conditions: HL-60 cells, MMC 1 h
Description: (§1) Immunoblot analysis. Immune complexes bound to protein A-sepharose were prepared as for the autophosphorylation assays. Proteins were separated in 10% SDS-polyacrylamide gels and transferred to nitrocellulose paper. The residual binding sites were blocked by incubating the filters in 5% dry milk in PBST (PBS/0.05% Tween-20) for 1 h at room temperature. The blots were subsequently incubated with anti-cdc2 or anti-phosphotyrosine (anti-P-Tyr; MAb 4G10, UBI). After washing twice with PBST, the filters were incubated for 1 h at room temperature with anti-mouse IgG (whole molecule) peroxidase conjugate (Sigma) in 5% milk/PBST. The filters were then washed and the antigen-antibody complexes visualized by the ECL detection system (Amersham, Arlington Heights, Ill.).

p56/p53^lyn [6] = assay: p56/p53^lyn activity in U-937 myeloid leukemia cells; assay type: cell-based
p59^fyn = assay: Anti-Fyn immune complex autophosphorylation assay from MMC-treated HL-60 cells; assay type: cell-based, human; conditions: 10^−5 M MMC, 1 h
p56/p53^lyn [7] = assay: Phosphorylation of cdc2 peptides by anti-Lyn immune complexes; assay type: cell-based, human; conditions: HL-60 cells, MMC 1 h
Description: Immune complexes were also resuspended in […] kinase buffer containing 1 mCi/ml [γ-^32P]ATP and either 100 mM cdc2 peptide (amino acids 7 to 20; […]; SEQ ID NO:1) or 100 mM mutated cdc2 peptide with Phe-15 substituted for Tyr-15 ([…]; SEQ ID NO:2). The reactions were incubated for 15 min at 30° C. and terminated by spotting on P81 phosphocellulose discs (GIBCO/BRL). The discs were washed twice with 1% phosphoric acid and twice with water before analysis by liquid scintillation counting.

p56/p53^lyn [8] = assay: Immunoblot of anti-Lyn immunoprecipitates (anti-Lyn, anti-P-Tyr); assay type: cell-based, human; conditions: HL-60 cells, MMC 1 h versus control
Description: as §1

p56/p53^lyn [9] = assay: Anti-Lyn immune complex kinase assay (autophosphorylation and enolase phosphorylation) from drug-treated HL-60 cells; assay type: cell-based, human; conditions: for effect of pretreatment on MMC-stimulated p56/p53^lyn activity: 10^−5 M inhibitor 1 h, then MMC 1 h
[10] = system: c-jun and EGR-1 gene expression; conditions: irradiated HL-60 cells; cited from earlier work
cancer cell = conditions: in vitro; cited from earlier work
tumor [11] = conditions: nude mice; cited from earlier work
pp110^gag-fes = conditions: cited from earlier work
pp60^v-src = conditions: cited from earlier work
EGF-stimulated receptors = EGF-stimulated receptors (Homo sapiens, UniProt P00533); conditions: intact cells, time and dose dependent; cited from earlier work
Chain of EGF-stimulated receptors (P00533 25-1210): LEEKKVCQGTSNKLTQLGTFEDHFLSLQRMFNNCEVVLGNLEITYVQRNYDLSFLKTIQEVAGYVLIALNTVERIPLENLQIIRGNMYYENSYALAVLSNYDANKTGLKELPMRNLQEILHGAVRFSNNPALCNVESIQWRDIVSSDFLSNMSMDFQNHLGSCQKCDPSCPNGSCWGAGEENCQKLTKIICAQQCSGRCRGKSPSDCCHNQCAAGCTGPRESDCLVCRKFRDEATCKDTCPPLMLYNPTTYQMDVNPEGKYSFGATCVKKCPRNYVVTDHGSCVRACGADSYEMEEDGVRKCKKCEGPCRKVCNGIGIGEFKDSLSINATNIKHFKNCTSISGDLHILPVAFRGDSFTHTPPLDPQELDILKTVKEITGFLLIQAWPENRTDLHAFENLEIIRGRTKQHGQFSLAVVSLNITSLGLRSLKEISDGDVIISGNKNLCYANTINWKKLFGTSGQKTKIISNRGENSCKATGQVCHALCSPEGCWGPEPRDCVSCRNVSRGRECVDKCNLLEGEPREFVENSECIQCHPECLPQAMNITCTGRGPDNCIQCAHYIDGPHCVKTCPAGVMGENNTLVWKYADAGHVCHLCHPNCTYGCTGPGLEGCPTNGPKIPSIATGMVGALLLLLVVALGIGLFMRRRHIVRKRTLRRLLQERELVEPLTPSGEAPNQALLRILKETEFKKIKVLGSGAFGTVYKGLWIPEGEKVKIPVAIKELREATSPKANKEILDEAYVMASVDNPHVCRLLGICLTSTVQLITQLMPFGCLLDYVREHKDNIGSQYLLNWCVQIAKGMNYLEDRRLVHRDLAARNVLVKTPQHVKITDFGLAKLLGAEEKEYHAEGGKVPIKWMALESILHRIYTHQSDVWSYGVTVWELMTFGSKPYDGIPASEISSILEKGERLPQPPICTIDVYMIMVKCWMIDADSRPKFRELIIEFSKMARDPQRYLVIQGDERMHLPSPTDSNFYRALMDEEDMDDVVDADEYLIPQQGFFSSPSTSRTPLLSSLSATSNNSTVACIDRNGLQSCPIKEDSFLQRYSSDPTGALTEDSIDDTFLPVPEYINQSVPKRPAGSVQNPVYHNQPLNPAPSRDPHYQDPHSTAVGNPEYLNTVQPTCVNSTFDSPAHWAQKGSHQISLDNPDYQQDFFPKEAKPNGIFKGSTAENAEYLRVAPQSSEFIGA

O=C1NC(=O)c2cc(Nc3ccccc3)c(Nc3ccccc3)cc21 [4,5-Dianilinophthalimide]
antitumor activity (tumor [1]): in vivo antitumor activity

CC(C)(C)c1cc(C=C(C#N)C#N)cc(C(C)(C)C)c1O [AG17]
pancreatic cancer cell growth (pancreatic cancer cell): inhibit pancreatic cancer cell growth

N#CC(C#N)=Cc1ccc(O)c(O)c1 [AG18]
pancreatic cancer cell growth (pancreatic cancer cell): inhibit pancreatic cancer cell growth

OO [H2O2]
phosphorylation of p56/p53^lyn or enolase (p56/p53^lyn [2]; HL-60 cells treated with 50 mM H2O2): did not show a detectable increase

O=C(O)c1cc(N(Cc2ccccc2O)Cc2cc(O)ccc2O)ccc1O [Lavendustin A]
inhibitory potency relative to erbstatin (protein-tyrosine kinase): about 50 times

CO[C@@]12[C@H](COC(N)=O)C3=C(C(=O)C(C)=C(N)C3=O)N1C[C@@H]1N[C@@H]12 [MMC, Mitomycin C]
pp60^c-src activity (pp60^c-src): decrease
kinase activity of anti-Lyn immune complexes incubated with MMC (p56/p53^lyn [3]): decrease in kinase activity
p34^cdc2 kinase activity (H1 histone phosphorylation) (p34^cdc2 [4]): loss of kinase activity
interaction between p56/p53^lyn and p34^cdc2 (p56/p53^lyn and p34^cdc2): induces an interaction
tyrosine phosphorylation of p34^cdc2 (anti-P-Tyr reactivity of anti-cdc2 precipitates) (p34^cdc2 [5]): increase in reactivity
p56/p53^lyn activity (p56/p53^lyn [6]): increases in p56/p53^lyn activity
autophosphorylation of p59^fyn (p59^fyn): decreased
phosphorylation of mutated cdc2 peptide (Tyr-15 to Phe-15) by anti-Lyn complexes (p56/p53^lyn [7]): little phosphorylation
stimulation of cdc2 peptide phosphorylation by anti-Lyn immune complexes (p56/p53^lyn [7]; versus control cells, cdc2 peptide amino acids 7 to 20): ~2 fold
tyrosine phosphorylation of p56/p53^lyn (anti-P-Tyr immunoblot) (p56/p53^lyn [8]): increase in tyrosine phosphorylation
increase in enolase phosphorylation (p56/p53^lyn [9]; 10^−5 M MMC, 30 min): 4.2 fold
p56/p53^lyn activity (autophosphorylation of anti-Lyn immunoprecipitates) (p56/p53^lyn [9]; 10^−5 M MMC, 1 h): increase
increase in enolase phosphorylation (p56/p53^lyn [9]; 10^−5 M MMC, 12 h): 4.1 fold
p56/p53^lyn activity (phosphorylation of p56/p53^lyn and enolase) (p56/p53^lyn [9]; 10^−6 and 10^−5 M MMC, 1 h): more pronounced stimulation
p56/p53^lyn activity (phosphorylation of p56/p53^lyn and enolase) (p56/p53^lyn [9]; 10^−8 and 10^−7 M MMC, 1 h): Increases

CC(=O)N[C@@H](CS)C(=O)O [NAC, N-acetyl cysteine]
effect on X-ray-induced p56/p53^lyn activity (p56/p53^lyn [2]; 30 mM NAC 1 hour): little effect
effect on induction of c-jun and EGR-1 gene expression [10]: completely blocks

COc1ccc(/C=C(\C#N)c2cccnc2)cc1OC [RG-13022]
cancer cell proliferation (cancer cell): suppress
tumor growth (tumor [11]): suppress

N#C/C(=C\c1cc(Cl)cc(Cl)c1)c1cccnc1 [RG-14620, (Z)-alpha-[(3,5-dichlorophenyl)methylene]-3-pyridylacetonitrile]
cancer cell proliferation (cancer cell): suppress
tumor growth (tumor [11]): suppress

N#C/C(=C\c1ccc(O)c(O)c1)C(N)=S [T47]
pancreatic cancer cell growth (pancreatic cancer cell): inhibit pancreatic cancer cell growth

Cc1c[nH]c2c1[C@@]13C[C@@H]1CN(C(=O)c1cc4cc(NC(=O)c5cc6ccccc6o5)ccc4[nH]1)C3=CC2=O [adozelesin]
p56/p53^lyn and enolase phosphorylation (p56/p53^lyn [9]; 2×10^−6 M, 1 h): stimulation of p56/p53^lyn and enolase phosphorylation

N.N.[Cl][Pt][Cl] [cis-platinum]
p56/p53^lyn kinase activity (phosphorylation of p56/p53^lyn and enolase) (p56/p53^lyn [9]; 10^−5 M, 1 h): stimulation of the p56/p53^lyn kinase

O=c1c(-c2ccc(O)cc2)coc2cc(O)cc(O)c12 [genistein]
inhibitory activity against pp110^gag-fes (pp110^gag-fes): specific inhibitory activity
effect on X-ray-induced p56/p53^lyn activity (p56/p53^lyn [2]; 10 μM inhibitor 1 hour): inhibited
effect of pretreatment on MMC-stimulated p56/p53^lyn activity (p56/p53^lyn [9]): completely blocks
inhibitory activity against pp60^v-src (pp60^v-src): specific inhibitory activity

CO[C@H]1[C@@H](OC)C[C@H](C)[C@@H](OC)C2=CC(=O)C=C(NC(=O)/C(C)=C/C=C\[C@H](OC)[C@@H](OC(N)=O)/C(C)=C/[C@@H]1C)C2=O [herbimycin A]
autophosphorylation of EGF-stimulated receptors (EGF-stimulated receptors): inhibit the autophosphorylation
effect on X-ray-induced p56/p53^lyn activity (p56/p53^lyn [2]; 10 μM inhibitor 1 hour): inhibited
effect of pretreatment on MMC-stimulated p56/p53^lyn activity (p56/p53^lyn [9]): completely blocks
